Reference: ChEMBL document CHEMBL1156829 (Proc Natl Acad Sci U S A, 2008)

How the values were obtained:
[1] = test system: Plasmodium falciparum; assay: NOVARTIS: Inhibition of Plasmodium falciparum 3D7 (drug-susceptible) proliferation in erythrocyte-based infection assay; type: functional, organism-based; conditions: Plasmodium falciparum, 3D7
[2] = test system: Plasmodium falciparum; assay: NOVARTIS: Inhibition of Plasmodium falciparum W2 (drug-resistant) proliferation in erythrocyte-based infection assay; type: functional, organism-based; conditions: Plasmodium falciparum, W2; read-out: EC50
[3] = NOVARTIS: Cytotoxicity against human hepatocellular carcinoma cell line (Huh7); type: toxicity, cell-based, Huh-7; conditions: Huh7 cells (hepatocellular carcinoma cell line)

SMILES | EC50 [1] [nM] | EC50 [2] [nM] | CC50 [3] [nM]
CCc1nc2nc(C)cc(Nc3ccc(F)c(Cl)c3)n2n1 | 543 | 547 | > 100000
O=C1N(Cc2cc3ccccc3s2)CC2CN(Cc3cccc4c3OCO4)CCN12 (configuration not stated) | 727 | < 0.572 | > 10000
O=C1CC(c2ccc([N+](=O)[O-])cc2)C2=C(CC(c3ccc(F)cc3)CC2=O)N1 (configuration not stated) | 2020 | 1070 | > 100000
CCN(CC)C(=O)COc1ccccc1CNCc1ccccc1 | > 1250 | 1440 | > 10000
CCOC(=O)C1CCN(C(c2cc3cc(OC)c(OC)cc3[nH]c2=O)c2nnnn2C(C)(C)C)CC1 (configuration not stated) | 889 | 567 | > 100000
CCN(CC)CCCC(C)Nc1cc(C=Cc2ccc([N+](=O)[O-])cc2)nc2cc(OC)ccc12 (configuration not stated) | 31.6 | 32.3 | 20200
Cc1cccc(C2c3[nH]c4ccccc4c3CCN2C(=O)CCCN2CCCCC2=O)n1 (configuration not stated) | > 12500 | 3770 | > 100000
COc1ccc(CCN2CCC(Nc3nc4ccccc4n3Cc3ccc(F)cc3)CC2)cc1 [ASTEMIZOLE] | 447 | 711 | 20900
N=c1c2c(n(Cc3ccc(Cl)cc3)c3c1CCC3)CCCC2 | 222 | 533 | > 10000
Cc1ccn2c(NC(C)(C)CC(C)(C)C)c(-c3ccccc3OC(=O)c3ccc(Cl)cc3)nc2c1 | 1210 | 77.8 | > 8270
CC(C)(C)NCC(O)Cn1c2ccc(I)cc2c2cc(I)ccc21 (configuration not stated) | 608 | 64 | 6090
CCOC(=O)C1=C(C)NC2=C(C(=O)CC(c3ccc(OC)c(OC)c3)C2)C1c1cccc(C)c1 (configuration not stated) | 236 | 57.2 | > 100000
CC(C)c1ccc(C=CC(=O)NCc2ccco2)cc1 | 1480 | 2000 | > 100000
Cc1ccc(OCCCCCCNCCO)c(C)c1 | 1970 | 391 | 20400
O=C(Nc1ccc(Cl)cc1)Nc1ccc(Br)cn1 | > 12500 | 712 | > 100000
CC(=O)Nc1ccc2c(c1)C(=O)N(C(C(=O)NCC(=O)O)C1CCCCC1)[C@@H](CCC(=O)O)C(=O)N2 (some centres not stated) | > 418 | 109 | > 10000
NC(Cc1ccccc1)C(=O)N1CCC(Nc2nsc3ccccc23)C1 (configuration not stated) | 1110 | 1510 | 12700
COC(=O)C1=C(C)NC2=C(C(=O)CC(c3ccc(OC)c(OC)c3)C2)C1c1ccccc1F (configuration not stated) | 50.5 | 30.6 | > 100000
COc1cc(C(=O)NCc2ccco2)ccc1OC1CCN(CC(c2ccccc2)c2ccccc2)CC1 | 118 | 58.7 | > 10000
O=C(NNc1cccc(F)n1)C(F)(F)F | 670 | 340 | > 10000
COc1ccc(C(=O)n2nc(N)c3cc4ccc(C)cc4nc32)cc1[N+](=O)[O-] | > 5420 | > 12500 | > 100000
COc1ccc(CC2NCC(O)C2OC(C)=O)cc1 (configuration not stated) | 36.9 | 48.5 | 8110
CCN(CC)CCNc1nc(/C=C/c2ccc(Cl)cc2)nc2cc3ccccc3cc12 | 124 | 90.1 | 5930

SMILES | EC50 [1] [nM] | EC50 [2] [nM] | CC50 [3] [nM]
CCCN1CCC(N2C[C@@H](NC3CCN(CCc4ccccc4)CC3)C[C@H]2C(=O)NCCc2ccc3c(c2)OCO3)CC1 | 86.8 | 792 | 11100
Cc1cccc(NC(c2ccncc2)c2ccc3cccnc3c2O)n1 (configuration not stated) | 669 | 375 | 69900
COc1ccccc1C(=O)NC1CCN(CC(O)CN(Cc2ccccc2)S(=O)(=O)c2ccccc2)C1 (configuration not stated) | 215 | 115 | > 10000
CCOC(=O)CCCSc1nc(-c2cccs2)cc(C(F)(F)F)c1C#N | 352 | 198 | > 10000
CCCN1CCC(N2C[C@@H](NCc3cc(C)ccc3C)C[C@H]2C(=O)NCCc2ccc3c(c2)OCO3)CC1 | 478 | 661 | 4200
Cc1nc(N2CCN(C)CC2)c2c(C)c(C(=O)NCCN(C)C)sc2n1 | > 1600 | > 1000 | > 10000
CN(CCCNc1ccnc2cc(Cl)ccc12)S(=O)(=O)c1ccc(Cl)c([N+](=O)[O-])c1 | 243 | 185 | 3140
C=CCn1c(SCC(=O)Nc2ccccc2C)nc2sc(C)cc2c1=O | 4280 | 1800 | > 100000
COc1ccc(OC)c(NC(=O)CSc2nc(NCc3ccc(Cl)cc3)c3ccccc3n2)c1 | > 11200 | > 11200 | > 100000
Oc1c2c(nc3cc(-c4ccc(Br)cc4)nn13)CCCC2 | 522 | 1300 | > 100000
CC(=O)c1cccc(S(=O)(=O)NCCCNc2nc3cc(C)cc(C)c3cc2C#N)c1 | 1150 | 698 | > 100000
CCc1ccc(O)c(-c2cc(C(=O)Nc3cccnc3)[nH]n2)c1 | 742 | 910 | > 100000
CC(=O)Nn1c(C(C)(C)C)nc2ccccc2c1=O | > 1470 | 2470 | > 10000
CNc1ccccc1C(=O)N(C)CCc1ccccc1 | > 1250 | 68.3 | > 10000
CCCOC(=O)C1=C(C)NC2=C(C(=O)CC(c3ccc(OC)c(OC)c3)C2)C1c1ccc(Cl)c(Cl)c1 (configuration not stated) | 143 | 49.2 | 52600
NCC(c1ccc(F)cc1)c1ccc(F)cc1 | > 345 | 99.8 | > 9210
CCc1c(C(=O)N2CCN(C(=O)CCl)C(C)C2)cnn1-c1nc(-c2ccc(Br)cc2)cs1 (configuration not stated) | 656 | 481 | > 8660
CCCN(C(=O)C(=O)Nc1ccc2nc3n(c(=O)c2c1)CCCCC3)c1ccc(OCC)cc1 | 89.9 | 50.1 | > 100000
COc1ccc(C2SCCN2S(=O)(=O)c2cccc([N+](=O)[O-])c2)cc1OC (configuration not stated) | > 1250 | > 676 | > 10000
Cc1nc2ncccn2c1-c1csc(Nc2ccccn2)n1 | 189 | 314 | > 100000
Cc1ccn2c(NC(C)(C)CC(C)(C)C)c(-c3ccccc3OC(=O)CCCCl)nc2c1 | 753 | 20.2 | > 10000
CC1(CNCc2ccccc2O)C2CC3CC(C2)CC1C3 (configuration not stated) | 143 | 32.6 | > 10000
CCN(CC)c1ccc(N=Cc2ccccc2[N+](=O)[O-])cc1 | 571 | 410 | 27700

SMILES | EC50 [1] [nM] | EC50 [2] [nM] | CC50 [3] [nM]
CN(C)c1oc(-c2ccc(Cl)cc2Cl)nc1[P+](c1ccccc1)(c1ccccc1)c1ccccc1 | 230 | 365 | 11600
CN(C)c1cc[n+](CC(=O)c2ccc(Br)cc2)cc1 | 211 | 183 | 75600
Cc1ccc(Nc2nc(NCc3ccco3)c3ccccc3n2)cc1 | 126 | 216 | 5270
CC[n+]1c(C=Cc2ccc(C)cc2)ccc2ccccc21 | 2990 | 2700 | 20900
CSC1=NC(=Nc2c(C)cccc2C)C2(CCC(C(C)(C)C)CC2)N1c1ccc(Cl)cc1 (configuration not stated) | 1480 | > 10000 | > 67300
O=C(Nc1ccncc1)Nc1cccc(NC(=O)Nc2ccncc2)c1 | > 1250 | 2230 | > 10000
COc1cc(Nc2cncc(-c3ccncc3)n2)cc(OC)c1OC | 1080 | 1420 | > 100000
O=C1C(NC2CCCCC2)=C(N2CCOCC2)C(=O)c2ccccc21 | 139 | 116 | 46100
Cc1nnc2sc(SCc3ccc([N+](=O)[O-])cc3)nn2c1=O | > 481 | > 1640 | > 10000
O=C(O)c1ccc([C@@H]2Nc3c(ccc4ccccc34)[C@@H]3C=CC[C@@H]32)cc1 | > 1250 | 1340 | > 10000
CC(=O)c1ccc(-n2cc(C(=O)C(C)Oc3ccc(Cl)cc3Cl)nn2)cc1 (configuration not stated) | 72.9 | 192 | > 10000
O=C(c1cccs1)N(Cc1cccs1)c1ccc([N+](=O)[O-])cc1 | 677 | 888 | > 10000
COc1ccccc1N1C(=N)S/C(=C\c2ccc(OCc3ccccc3F)cc2)C1=O | 741 | 434 | > 10000
Fc1ccc(CSc2nc3cccnc3[nH]2)cc1 | 3620 | 4800 | > 100000
CCOc1ccc(Nc2cc(C)nc3c(C)cc(C)cc23)cc1 | 484 | 225 | 19200
COc1ccc(Cn2c(C)nc3cc(NC(=O)Nc4ccccc4)c(C)nc32)cc1 | 373 | 110 | > 100000
Fc1ccccc1Nc1nc(NCC2CCCO2)c2ccccc2n1 (configuration not stated) | 669 | 637 | 34200
Cc1ccc(S(=O)(=O)NC(Cc2ccccc2)C(=O)N2CCC(C3CCN(C(=O)c4ccc([N+](=O)[O-])o4)CC3)CC2)cc1 (configuration not stated) | 1910 | > 1680 | > 10000
COc1ccccc1CNC(=O)CN1C(=O)c2cccnc2Oc2ccccc21 | > 586 | 1350 | > 10000
CCOc1ccc(NC(=O)c2ccc(F)c(S(=O)(=O)NC3CCCC(C)C3C)c2)cc1 (configuration not stated) | 1040 | 178 | 32200
CCN1CCCC1CNc1ncnc2c1[nH]c1ccc(C)cc12 (configuration not stated) | 269 | 138 | 21000
CCCCN(C)Cc1ccc2c(NC(=O)c3ccc(C)s3)c(C(=O)OC)sc2n1 | 542 | 461 | 1520
CCOC(=O)c1cnc2cc(OCC(C)C)c(OCC(C)C)cc2c1O [BUQUINOLATE] | 649 | 958 | > 10000
